Data reported in patent US11439611B2, “Administration of serine protease inhibitors to the stomach” (LEADING BIOSCIENCES, INC., priority 2010, dated 2022).

Assays:
Format in all cases: in vivo
[1] = Rat model of severe ischemic intestine with enteral oxygen carrier; conditions: 30 min ischemia, 17 ml solution for a 230 g rat, saturated for 10 min in oxygen
Protocol: More specifically, the feasibility was illustrated in a model with 30 min ischemia with perfluorodecalin solution 17 ml for 230 g rat) previously saturated for 10 min in oxygen. Thus, it should be noted that gastric, duodenal, jejunal, and ileal irrigation (or otherwise exposure) may be used as a stand-alone or supplemental treatment in human and other mammals. Most typically, the volume of the oxygen carrier will be adjusted such as to allow intimate contact with the oxygen carrier throughout the stomach, duodenum, jejunum, and/or ileum.

[2] = system: digestive enzymes; experiment: Shock treatment in rats with an enteral protease inhibitor to block digestive enzymes
Protocol: With respect to suitable quantities of one or more protease inhibitors, the inventors observed in various animal models that shock treatment using protease inhibitors to block digestive enzymes requires for at least some protease inhibitors a minimum effective dosage that is substantially above the dosage contemplated in the '283 patent. For example, using tranexamic acid in rats, the minimum effective dose was 100 mg/kg (127 mM in the enteral solution with 17 ml to a 350 gm rat). Here, tranexamic acid was given to rats in 18 cc of fluid. The equivalent concentration in 2 liters (deemed suitable as human dose) is 3.2 grams. The maximum dose tested in rats was 1125 mg/kg, which is equivalent to 36 grams for a human dose in 2 liters of fluid to be administered into the lumen of the stomach or intestine.

[3] = Case study: human patient with Fournier's gangrene, septic shock and multiple organ failure, treated with gabexate mesilate
Protocol: For example, as reported in a case study from the Cheng-Hsin General Hospital (that was approved by Human Ethics Committee and written consent by the patient), a heart transplant patient was regularly followed-up in the clinic with cyclosporine, mycophenolate, and prednisolone therapy for four years. The cyclosporine level was kept around 150, […] without evidence of rejection or infection during this period of follow-up. […] The wound was self-managed by the patient and deteriorated after one week. They were hospitalized and immediately admitted to the intensive care unit. At presentation, blood pressure was 80/40 mmHg in spite of aggressive fluid management with 2 liters of crystalloid and colloid fluid over 5 hours and vasopressor therapy with dopamine […]. […] They were intubated and received broad-spectrum antibiotics, including teichomycin, meropenem, and caspofungin. […] The diagnosis was Fournier's gangrene complicated with septic shock and multiple organ failure. Due to persistent septic shock and worsening septic markers, the patient received in addition a diverting colectomy and intravenous total parental nutrition. Furthermore, the patient also received a second wide debridement. The wound culture was positive with multiple drug resistance Pseudomonas aeruginosa and Bacteroides thetaiotaomicron.
Intravenous gabexate mesilate was given for severe septic shock and elevated amylase and lipase values (as markers for presence of pancreatic enzymes) at a dose of 3000 mg/day. At the same time, the patient stopped all enteral feeding and total parental nutrition was given with positive fluid balance of more than 1 liter per day.
Treatment was then switched to enteral gabexate mesilate infusion by continuous feeding into the stomach via nasogastric tube at a dose of 3000 mg/day in 2000 ml of normal saline. […] On the third day, the dose of gabexate mesilate was reduced to 300 mg/day in a fluid volume of 2000 ml and kept at this level for 10 days before discharge of the patient from the intensive care unit. […] Three days after enteral gabexate mesilate treatment they were extubated. On day 13, the immunosuppressant medication was restored with reduced dosage compared to the time before hospitalization and they were discharged from the ward after one month of admission. Five months after discharge at the time of this report writing the patient was alive.

[4] = enteral via nasogastric tube, 3000 mg/day, within two days

For `FC1(F)C(F)(F)C(F)(F)C2(F)C(F)(F)C(F)(F)C(F)(F)C(F)(F)C2(F)C1(F)F` (stereo not shown) [perfluorodecalin, Perfluorodecalin], which “intestinal damage / entry of digestive enzymes into the wall of the intestine” value [1] is on record?
Its value is “minimize intestinal damage”.

Which “minimum effective dose, as concentration in the enteral solution” value ([2]; 17 ml to a 350 gm rat) does the source give for `NC[C@H]1CC[C@H](C(=O)O)CC1` [tranexamic acid] here?
Its value is 127 mM.

And the “equivalent of the minimum effective rat dose in 2 liters (human dose)” value ([2]; extrapolated from rat to a human dose in 2 liters)?
Its value is 3.2 grams.

What about the minimum effective dose ([2]; rats, enteral, given in 17-18 ml of fluid to a 350 gm rat) of the same molecule?
The minimum effective dose was 100 mg/kg.

What does the source list for “[Ethyl p-(6-guanidinohexanoyloxy) benzoate] methanesulfonate [gabexate mesilate]”?
effectiveness of a single dose/day given via NG tube in human ([3]; 2 to 4 grams in 1 to 2 liter solution with GOLYTELY (PEG) or saline, over multiple days (up to 14)): very effective; blood pressure ([3]; continuous feeding into the stomach via nasogastric tube, 3000 mg/day in 2000 ml normal saline, within two days, minimal dose of dopamine): stabilized; amylase, lipase and white blood cell (WBC) count ([3]; enteral via nasogastric tube, 3000 mg/day, then 300 mg/day from the third day for 10 days, FIG. 1A): reduced to control values; glucose level [3, 4]: could be controlled by reduced dose of subcutaneous insulin; patient's level of conscience [3, 4]: increased; x-ray of the abdomen (ileus) ([3]; enteral via nasogastric tube, day 16 vs day 1, FIG. 1C): improved ileus; survival ([3]; five months after discharge): alive; plasma amylase and lipase values ([3]; intravenous, 3000 mg/day, over the next 12 hours, enteral feeding stopped, total parenteral nutrition): did not reduce; extubation ([3]; three days after enteral treatment): extubated
